Literature values, collected in US7825150B2, “Compositions and methods for treating immunological and inflammatory diseases and disorders” (Lexicon Pharmaceuticals, Inc., priority 2007, dated 2010).
Like-named read-outs stand apart in the source and are kept apart here.

Assays:
[1] = tested on: adjuvant-induced arthritis (AA) model; details: therapeutic setting, established disease state; majority of published studies
S1P lyase = biological target: T1, S1P lyase (Mus musculus, UniProt Q8R0X7); details: administered to mice; Schwab et al. 2005
T1 construct: host or cells: mice, in vivo (endogenous enzyme)
T1 sequence (Q8R0X7 1-568): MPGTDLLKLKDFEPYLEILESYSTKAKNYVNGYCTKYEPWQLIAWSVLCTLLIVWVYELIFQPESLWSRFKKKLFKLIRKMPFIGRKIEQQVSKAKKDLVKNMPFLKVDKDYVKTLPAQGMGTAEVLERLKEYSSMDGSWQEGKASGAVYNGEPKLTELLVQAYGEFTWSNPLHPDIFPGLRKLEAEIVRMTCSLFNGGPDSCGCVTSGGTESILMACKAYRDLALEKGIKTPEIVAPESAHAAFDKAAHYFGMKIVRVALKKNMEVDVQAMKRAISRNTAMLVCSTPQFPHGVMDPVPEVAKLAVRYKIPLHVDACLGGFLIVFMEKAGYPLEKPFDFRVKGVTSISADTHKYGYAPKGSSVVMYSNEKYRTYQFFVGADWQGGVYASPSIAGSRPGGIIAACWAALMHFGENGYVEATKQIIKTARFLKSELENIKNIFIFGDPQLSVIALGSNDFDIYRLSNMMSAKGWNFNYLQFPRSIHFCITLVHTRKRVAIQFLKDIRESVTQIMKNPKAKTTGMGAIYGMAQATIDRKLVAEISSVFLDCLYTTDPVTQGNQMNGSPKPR

lymphocytes [2] = details: administration to rats
lymphocytes [3] = details: administration to mice
[4] = humans

| S1P lyase activity (S1P lyase) | SMILES | effectiveness of MTX treatment alone in this model [1] | accumulation of mature T cells in the thymus (lymphocytes [2]) | lymphopenia (lymphocytes [2]) | accumulation of mature T cells in the thymus (lymphocytes [3]) | lymphopenia (lymphocytes [3]) | immunological effects [4] |
| --- | --- | --- | --- | --- | --- | --- | --- |
|  | CN(Cc1cnc2nc(N)nc(N)c2n1)c1ccc(C(=O)N[C@@H](CCC(=O)O)C(=O)O)cc1 [MTX, methotrexate] | not effective |  |  |  |  |  |
| inhibits S1P lyase activity | CC(=O)c1nc(C(O)C(O)C(O)CO)c[nH]1 (stereo not shown) [THI, 2-acetyl-4-tetrahydroxybutylimidazole] |  | causes the accumulation of mature T cells in the thymus | induces lymphopenia | causes the accumulation of mature T cells in the thymus | induces lymphopenia | no immunological effects |
